Test results published in the NIST ThermoML archive (doi:10.1021/je0342320).

Experiment: xn = mol fraction of the nth substance listed
Settings: Liquid, Vibrating tube method

CCCCCCCCCC [decane] + COC(=O)OC
mass density [kg/m3]
Settings | 100 kPa | 10000 kPa | 20000 kPa | 30000 kPa | 40000 kPa
288.15 K, x2 = 0.0676 | 741.97 | 749.1 | 755.73 | 761.88 | 767.71
288.15 K, x2 = 0.2303 | 767.95 | 775.45 | 782.4 | 788.87 | 794.93
288.15 K, x2 = 0.2934 | 780.23 | 787.82 | 794.87 | 801.43 | 807.54
288.15 K, x2 = 0.4055 | 804.52 | 812.34 | 819.59 | 826.32 | 832.65
288.15 K, x2 = 0.502 | 829.72 | 837.73 | 844.78 | – | –
288.15 K, x2 = 0.5476 | 843.28 | 851.4 | – | – | –
288.15 K, x2 = 0.665 | 883.8 | – | – | – | –
288.15 K, x2 = 0.7101 | 901.71 | – | – | – | –
288.15 K, x2 = 0.9062 | 1004.68 | 1013.19 | 1021.19 | 1028.63 | 1035.61
293.15 K, x2 = 0.0676 | 738.16 | 745.45 | 752.25 | 758.56 | 764.48
293.15 K, x2 = 0.2303 | 763.84 | 771.54 | 778.69 | 785.31 | 791.49
293.15 K, x2 = 0.2934 | 775.99 | 783.79 | 791.01 | 797.71 | 803.97
293.15 K, x2 = 0.4055 | 799.94 | 807.99 | 815.46 | 822.34 | 828.8
293.15 K, x2 = 0.502 | 824.83 | 833.07 | 840.72 | 847.8 | 854.44
293.15 K, x2 = 0.5476 | 838.17 | 846.56 | 854.35 | 861.57 | 868.38
293.15 K, x2 = 0.5883 | 851.08 | 859.46 | 867.28 | 874.53 | –
293.15 K, x2 = 0.665 | 878.01 | 886.63 | 894.64 | 902.11 | –
293.15 K, x2 = 0.7101 | 896.39 | 905.11 | 913.24 | 920.82 | –
293.15 K, x2 = 0.7993 | 936.74 | 945.44 | 953.46 | – | –
293.15 K, x2 = 0.9062 | 998.35 | 1007.19 | 1015.43 | 1023.08 | 1030.28
298.15 K, x2 = 0.0676 | 734.31 | 741.8 | 748.75 | – | –
298.15 K, x2 = 0.2303 | 759.7 | 767.62 | 774.95 | – | –
298.15 K, x2 = 0.2934 | 771.64 | 779.68 | 787.1 | – | –
298.15 K, x2 = 0.4055 | 795.37 | 803.65 | 811.3 | – | –
298.15 K, x2 = 0.502 | 819.95 | 828.44 | – | – | –
298.15 K, x2 = 0.5476 | 833.19 | 841.77 | – | – | –
298.15 K, x2 = 0.5883 | 845.93 | 854.59 | – | – | –
298.15 K, x2 = 0.665 | 872.69 | 881.52 | – | – | –
298.15 K, x2 = 0.7101 | 890.82 | 899.75 | – | – | –
298.15 K, x2 = 0.7993 | 930.88 | 939.91 | – | – | –
298.15 K, x2 = 0.9062 | 992.18 | 1001.24 | – | – | –
